Tests used:
[1] = system: KB cell; assay type: cell-based, human; details: for Activity in μg/ml (ED50 = concentration causing 50% inhibition of growth): kb cells
[2] = system: mice; details: mouse, in vivo, ip
[3] = system: pigeons; details: in vivo, po
[4] = system: pigeons; details: in vivo

`CCC(=O)OC1C2OC3C=C(C)C(OC(=O)CC(C)C)CC3(COC(C)=O)C(C)(C1OC(C)=O)C21CO1` (stereo not shown) [PT-2] was tested. Which “Activity in μg/ml (ED50 = concentration causing 50% inhibition of growth)” value [1] did it give?
The value was 10^-8 μg/ml.

`CC(=O)OCC12CC(OC(=O)CC(C)C)C(C)=CC1OC1C(OC(C)=O)C(OC(C)=O)C2(C)C12CO2` (stereo not shown) [AT-2] was tested. Which “times more active than T-2 toxin” value [1] did it give?
The value was “about 5,000 times”.

What about the “Activity in μg/ml (ED50 = concentration causing 50% inhibition of growth)” value [1] of the same molecule?
Its value is 10^-8 μg/ml.

And the “toxicity relative to T-2 toxin” value [2]?
The value was “less than 1/2”.

And the “toxicity relative to T-2 toxin” value [3]?
The value was “less than 1/6”.

What about the vomiting [4] of the same molecule?
Its vomiting is “virtually completely eliminated”.

For `CC(=O)OCC12CC(OC(=O)CC(C)C)C(C)=CC1OC1C(OC(=O)c3ccccc3)C(OC(C)=O)C2(C)C12CO2` (stereo not shown) [BzT-2], which “Activity in μg/ml (ED50 = concentration causing 50% inhibition of growth)” value [1] is on record?
The value was 10 µg/mL.

Source: patent publication US4129577A (priority 1977, dated 1978)
